In US5968912A, “Methods for immunosuppressing” (Immune Modulation, Inc., priority 1997, dated 1999):
Entries after “also recorded” stand apart in the source; their conditions may differ.

What was measured:
[1] = system: H-2K anti-H-2d cytotoxic T-cells; assay: Generation of H-2K anti-H-2d cytotoxic T-cell activity in mice, ex vivo 51Cr-release assay; parameters: species or system mouse (C3H/J; DBA/2 targets)
Method: Generation of H-2 Restricted Cytolytic T-lymphocytes in Mice
A mouse correlate of the human "one-way MLR" was developed in inbred strains of mice. The cells of one mouse strain (H-2^d) were injected i.v. into a different mouse strain (H-2^k). Mice were obtained from Charles River Laboratories, Hollister, Calif.). Because of the histoincompatibility between the two strains, the H-2^k mice develop cytotoxic T-cells capable of killing the cells of the H-2^d strain of mice (Abbas, A. K., id), which is the type of reaction observed in humans or animals receiving tissue grafts from histoincompatible donors. The H-2^k mice sensitized against H-2^d cells/allo-antigens were treated with either HE-33 (100 mg/kg i.v. or 400 mg/kg orally) every three days for 9 days or were not treated with drug.
Ex Vivo Assay. On the tenth day, all mice were sacrificed, and spleens were removed to test for splenic T-cell-mediated cytotoxicity against CON-A stimulated DBA/2 spleen cells expressing the H-2^d antigens. CON-A was obtained from Sigma Chem. Co., St. Louis, Mo. Spleen cell suspensions were prepared in complete culture medium and adjusted to desired concentrations. The CON-A blast cells were radiolabeled with ^51 Cr and mixed with the respective splenic effector cells at varying effector:target cell ratios in 96-well microtiter plates. The mixtures were cultured for 4 hr. at 37° C. in a 5% CO2 incubator. Lysis of target cells were assessed essentially as described previously for a ^51 Cr-release assay (Ojo-Amaize, E. A., et al., id) and results expressed as % specific lysis (FIG. 1).
*C3 H/J mouse was injected with 2 × 10^7 DBA/2 spleen cell
for 9 days. HE33 was administered either orally (400 mg/kg) or
intravenously (100 mg/kg) on day 0 and every three days. ConA stimulated
DBA/2 spleen cells were used as target cells.

[2] = system: skin graft rejection (Balb/C tail skin on C57BL/6 mice); assay: Skin graft survival in mice; assay type: in vivo, mouse
Method: Effect of HE-33 on Skin-Grafting
Balb/C and C57BL/6 mice are genetically histoincompatible in that Balb/C is of haplotype H-2^d whereas C57BL/6 is of haplotype H-2^b. The surgical procedure used in these experiments was performed according to the procedures reported by Matriano, J. E. et al. (J. Immunol., 1996, 156:4114-4119).
Mice in groups 4 and 5 were orally administered HE-33 daily from 2 days prior to grafting. Rejection was assessed by observing redness and dryness of the graft (Natriano, J. E. et al., J. Immunol., 1996, 153:1505-1514). At a dose of 100 mg/kg I.V., HE-33 prolonged graft survival by approximately 4 days.
C57BL/6 mice were grafted with tail skin from Balb/c mice. Drug treatment
was started two days prior to grafting. Casts were removed on day 6 and
survival of the graft was scored everyday. Rejection was defined on chang
in thickness, dryness and >80% redness of the graft.

[3] = system: GVHD in (B6 x C3H)F1 mice; assay: GVHD in (B6 x C3H)F1 recipients of cells from pretreated C57BL/6 donor mice; assay type: in vivo, mouse
Method: Generation of F1 Recipient Mice: Male mice of inbred strains, C57BL/6 (H-2^b haplotype) were mated with female mice of inbred strains, C3 H/j (H-2^k haplotype). The resulting hybrids (C57BL/6×C3 H/j)F1 were used as recipients of the B6 spleen cells.
Elimination of endogenous and inducible NK cell activity from the cell donor mice (C57BL/6)
Six- to ten-week old C57BL/6 mice were treated for 24 hours orally or intravenously with HE-33. Orally-treated mice received 400 mg/kg twice a day (Bid), and intravenously treated mice received a single 100 mg/kg i.v.
Irradiation of Recipient (B6 ×C3 H)F1 Mice: Ten- to twelve- week old (B6 ×C3 H)F1 mice were sublethally irradiated with a Cobalt-60 gamma source at 450 rads in a single dose.
Induction of GVHD: GVHD was induced in irradiated (B6 ×C3 H)F1 mice by the intravenous injection of 5×10^7 donor B6 (H-2^b) spleen and lymph node cells.

[4] = system: mononuclear leukocytes (Two-way MLR); assay: Two-way mixed leukocyte reaction (MLR), 3H-thymidine incorporation; assay type: cell-based, human

For `CCCN(CCC)c1ncnc2c1ncn2[C@@H]1O[C@@H]2COP(=O)(O)O[C@H]2[C@H]1O` [HE-33, N^6,N^6 -di-n-Propyl-c-AMP], the L.U. ([1]; I.V. injected 100 mg/kg) was 1 L.U, the “% Inhibition of cytotoxic T-cell activity” value ([1]; I.V. injected 100 mg/kg every three days) was 92% and the “% Lysis” value ([1]; I.V. injected 100 mg/kg, ratio 3.12:1) was 0%. For the same molecule, the “% Lysis” value ([1]; I.V. injected 100 mg/kg, ratio 6.25:1) was 0%, the “% Lysis” value ([1]; I.V. injected 100 mg/kg, ratio 12.5:1) was 0% and the “% Lysis” value ([1]; I.V. injected 100 mg/kg, ratio 25:1) was 1%. The “% Inhibition of cytotoxic T-cell activity” value ([1]; oral fed 400 mg/kg) was 32%, the L.U. ([1]; oral fed 400 mg/kg) was 9 L.U and the “% Lysis” value ([1]; oral fed 400 mg/kg, ratio 3.12:1) was 1%. For the same molecule, the “% Lysis” value ([1]; oral fed 400 mg/kg, ratio 6.25:1) was 2%, the “% Lysis” value ([1]; oral fed 400 mg/kg, ratio 12.5:1) was 2% and the “% Lysis” value ([1]; oral fed 400 mg/kg, ratio 25:1) was 5%. For the same molecule, the “Mean Survival Time” value ([2]; 50 mg/kg (I.V.)) was 10.25 days, the “Mean Survival Time” value ([2]; 100 mg/kg (I.V.)) was 13.4 days and the “Prolongation of graft survival” value ([2]; 100 mg/kg I.V.) was “approximately 4 days”. The “Mean Survival Time” value ([2]; 200 mg/kg (oral)) was 9.2 days, the “Mean Survival Time” value ([2]; 400 mg/kg (oral)) was 9.8 days and the “Mean survival time (MST) of the mice that died” value ([3]; FIG. 2) was 46 days. For the same molecule, the “Recipients that had died” value ([3]; by 55 days post cell transfer, FIG. 2) was 30%, the “Recipients that had died” value ([3]; by day 30 post cell transfer, FIG. 2, P<0.0000001) was “none” and the “Recipients that had died” value ([3]; day 33 post cell transfer, FIG. 3) was 50%. The “Prevention of GVHD by route of administration, in words” value ([3]; oral versus intravenous) was “the oral route was better than the i.v. route; also recorded: Both the oral and intravenous routes of administration of HE-33 were effective in preventing GVHD”, the IC50 ([4]; Homo sapiens, Leukocyte, read-out: IC50, drug concentration capable of inducing a 50% inhibition) was 100 to 1000 nM and the inhibition at 0.01 µM ([4]; Homo sapiens, Leukocyte, 0.01 μM) was 28%. It also gave an inhibition at 0.1 µM ([4]; Homo sapiens, Leukocyte, 0.1 μM) of 40%, an inhibition at 1 µM ([4]; Homo sapiens, Leukocyte, 1 μM) of 81% and an inhibition at 10 µM ([4]; Homo sapiens, Leukocyte, 10 μM) of 96%. The inhibition at 100 µM ([4]; Homo sapiens, Leukocyte, 100 μM) was 99.2% and the “Inhibitory capacity on two-way MLR, in words” value ([4]; two-way MLR) was “comparable to that of cyclosporin (CsA)”.
